Experimental data: PubChem BioAssay (NCI)
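Briefly, cells in 96-well plates were exposed to five compound concentrations for 48 h, and endpoints were estimated by linear interpolation. TGI: concentration producing complete growth inhibition.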

What was measured:
Assay in all cases: NCI-60 cell line screen, 48 h
[1] = system: 786-0 renal
[2] = system: BT-549 breast
[3] = system: CAKI-1 renal
[4] = system: CCRF-CEM leukemia
[5] = system: COLO 205 colon
[6] = system: EKVX NSCLC
[7] = system: HCC-2998 colon
[8] = system: HCT-15 colon
[9] = system: HOP-62 NSCLC
[10] = system: HOP-92 NSCLC
[11] = system: HS 578T breast
[12] = system: HT29 colon
[13] = system: IGROV1 ovarian
[14] = system: K-562 leukemia
[15] = system: KM12 colon
[16] = system: LOX IMVI melanoma
[17] = system: M14 melanoma
[18] = system: MALME-3M melanoma
[19] = system: MCF7 breast
[20] = system: MDA-MB-231 breast
[21] = system: MDA-MB-435
[22] = system: MDA-N
[23] = system: MOLT-4 leukemia
[24] = system: NCI-H23 lung
[25] = system: NCI-H460 lung
[26] = system: NCI-H522 lung
[27] = system: NCI/ADR-RES ovarian
[28] = system: OVCAR-3 ovarian
[29] = system: OVCAR-4 ovarian
[30] = system: OVCAR-5 ovarian
[31] = system: OVCAR-8 ovarian
[32] = system: PC-3 prostate
[33] = system: RPMI-8226 leukemia
[34] = system: SF-268 CNS
[35] = system: SF-295 CNS
[36] = system: SK-MEL-2 melanoma
[37] = system: SK-MEL-28 melanoma
[38] = system: SK-MEL-5 melanoma
[39] = system: SK-OV-3 ovarian
[40] = system: SN12C renal
[41] = system: SNB-19 CNS
[42] = system: SNB-75 CNS
[43] = system: SR leukemia
[44] = system: SW-620 colon
[45] = system: T-47D breast
[46] = system: TK-10 renal
[47] = system: U251 CNS
[48] = system: UACC-257 melanoma
[49] = system: UACC-62 melanoma
[50] = system: UO-31 renal
[51] = system: A498 renal
[52] = system: A549 NSCLC
[53] = system: ACHN renal
[54] = system: DU-145 prostate
[55] = system: HCT-116 colon
[56] = system: HL-60(TB) leukemia
[57] = system: NCI-H226 lung
[58] = system: SF-539 CNS

With CCC1(O)CC(OC2CC(N(C)C)C(OC3CC(O)C(OC4CCC(=O)C(C)O4)C(C)O3)C(C)O2)c2c(cc3c(c2O)C(=O)c2c(O)ccc(O)c2C3=O)C1C(=O)OC (stereo not given) the TGI [1] was 0.493 µM, the TGI [2] was 1.78 µM and the TGI [3] was < 0.01 µM. It also gave a TGI [4] of 0.0528 µM, a TGI [5] of 0.0131 µM and a TGI [6] of 0.116 µM. The TGI [7] was < 0.0112 µM, the TGI [8] was 0.018 µM and the TGI [9] was 0.156 µM. For the same compound, the TGI [10] was 0.0185 µM, the TGI [11] was 0.384 µM and the TGI [12] was < 0.0105 µM. For the same compound, the TGI [13] was 1.22 µM, the TGI [14] was < 0.01 µM and the TGI [15] was 0.0994 µM. The TGI [16] was < 0.01 µM, the TGI [17] was 0.0516 µM and the TGI [18] was 0.029 µM. It also gave a TGI [19] of 2.01 µM, a TGI [20] of 0.113 µM and a TGI [21] of 0.409 µM. It also gave a TGI [22] of 0.0251 µM, a TGI [23] of 0.0101 µM and a TGI [24] of 0.0343 µM. The TGI [25] was < 0.01 µM, the TGI [26] was < 0.01 µM and the TGI [27] was 0.259 µM. The TGI [28] was 0.186 µM, the TGI [29] was 0.214 µM and the TGI [30] was 10.8 µM. The TGI [31] was 0.0739 µM, the TGI [32] was 0.393 µM and the TGI [33] was 0.0109 µM. For the same compound, the TGI [34] was 0.208 µM, the TGI [35] was 0.441 µM and the TGI [36] was 0.0148 µM. For the same compound, the TGI [37] was 0.211 µM, the TGI [38] was 0.0282 µM and the TGI [39] was 13.3 µM. The TGI [40] was 1.18 µM, the TGI [41] was 2.41 µM and the TGI [42] was 0.0846 µM. The TGI [43] was < 0.01 µM, the TGI [44] was 3.56 µM and the TGI [45] was 0.597 µM. The TGI [46] was 0.0339 µM, the TGI [47] was 2.22 µM and the TGI [48] was 0.0294 µM. The TGI [49] was < 0.0132 µM and the TGI [50] was < 0.01 µM.
CCN(CC)CCCNc1[nH]ncc2cc3c(nc4ccccc43)c(C)c12 gave a TGI [1] of 17.3 µM, a TGI [51] of 28.7 µM and a TGI [52] of 26.7 µM. The TGI [53] was 21.9 µM, the TGI [2] was 32.7 µM and the TGI [3] was > 100 µM. The TGI [4] was 21.3 µM, the TGI [5] was 23.4 µM and the TGI [54] was 24.3 µM. For the same compound, the TGI [6] was 23.5 µM, the TGI [7] was 23.2 µM and the TGI [55] was 17.4 µM. For the same compound, the TGI [8] was 30 µM, the TGI [56] was 27.1 µM and the TGI [9] was 42.2 µM. The TGI [11] was 29.2 µM, the TGI [12] was 15.8 µM and the TGI [13] was 15.7 µM. The TGI [14] was > 100 µM, the TGI [15] was 18.5 µM and the TGI [16] was 20.6 µM. The TGI [17] was 52.3 µM, the TGI [18] was 31.4 µM and the TGI [19] was 38.4 µM. It also gave a TGI [20] of 19.4 µM, a TGI [21] of 36.1 µM and a TGI [22] of 30.8 µM. For the same compound, the TGI [23] was 5.43 µM, the TGI [57] was 25.3 µM and the TGI [24] was 28 µM. For the same compound, the TGI [25] was 18.1 µM, the TGI [26] was 16.3 µM and the TGI [27] was > 100 µM. The TGI [28] was 28.6 µM, the TGI [30] was 50.4 µM and the TGI [31] was 24.5 µM. It also gave a TGI [32] of 25.5 µM, a TGI [33] of 31.3 µM and a TGI [34] of 20.6 µM. For the same compound, the TGI [35] was 32.2 µM, the TGI [58] was 34.1 µM and the TGI [36] was > 100 µM. For the same compound, the TGI [37] was 32.5 µM, the TGI [38] was 38 µM and the TGI [39] was 34.3 µM. The TGI [40] was 19.9 µM, the TGI [41] was 27.5 µM and the TGI [42] was 26.4 µM. It also gave a TGI [44] of 17.4 µM, a TGI [45] of 29.4 µM and a TGI [46] of 36.2 µM. It also gave a TGI [47] of 24.4 µM, a TGI [48] of 29.5 µM and a TGI [49] of 29.4 µM. The TGI [50] was 24.5 µM.
